Laboratory results reported in publication PMC8556396, “Statin-mediated disruption of Rho GTPase prenylation and activity inhibits respiratory syncytial virus infection” (Communications Biology, 2021).
“And” between values parts separate entries of the source, which are not always exact repeats. Equal entries are not always repeated.

How the values were obtained:
RSV A2 = test: Immunofluorescence staining and microscopy of RSV F and N; conditions: for RSV F intensity (a.u.): Fig 5D; for RSV N intensity (a.u.): Fig 5E;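 as to RSV F intensity (a.u.): fluorescence normalized to total nuclear count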;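 as to RSV N intensity (a.u.): fluorescence normalized to total nuclear count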
[1] = in vivo; cited from earlier work
[2] = FTI-276 0.5 uM, perillyl alcohol 0.5 mM
[3] = FTI-276 1 uM, perillyl alcohol 1 mM

C=C(C)[C@@H]1CC=C(CO)CC1 [Perillyl alcohol, perillyl alcohol]
RSV F intensity (a.u.) (RSV A2; [2]): 4.838 a.u. and 4.168 a.u. and 3.383 a.u.
RSV F intensity (a.u.) (RSV A2; [3]): 5.114 a.u. and 3.157 a.u.
RSV F intensity (a.u.) (RSV A2; FTI-276 5 uM, perillyl alcohol 5 mM): 0.705 a.u. and 0.8175 a.u. and 0.8487 a.u.
RSV N intensity (a.u.) (RSV A2; [2]): 6.098 a.u. and 3.977 a.u. and 5.388 a.u. and 3.797 a.u.
RSV N intensity (a.u.) (RSV A2; [3]): 3.037 a.u. and 4.82 a.u. and 2.725 a.u. and 4.829 a.u.
effect of prenyltransferase inhibitor on RSV A2 infection (RSV A2; HEp-2, F and N immunofluorescence): dose-dependently reduced RSV A2 infection
reduction of N protein intensity (RSV A2; relative to DMSO, 48 h p.i., PA 5.0 mM, EHT 1864 20.0 µM): 82.7 ± 3.3%
tolerability [1]: well-tolerated in humans
